Test results: article PMC8389614, “A Comparison of Acute Pharmacological Effects of Methylone and MDMA Administration in Humans and Oral Fluid Concentrations as Biomarkers of Exposure” (Biology, 2021)
Read-outs that look alike come from different tables or passages of the source.

Experiments:
[1] = Oral fluid to blood (OF/B) concentration ratio and plasma concentration; details: human, 100 mg
healthy poly-drug users [2] = experiment: Physiological effects (non-invasive SBP, DBP, HR, cutaneous temperature) after oral self-administration; type: in vivo, humans; set-up: key to HR Dunnet’s Test: “a” (times 0–1 h); “b” (times 0–2 h); “c” (times 0–4 h); not significant (NS); details: for DBP AUC0–4h / DBP Emax / HR AUC0–4h / HR Emax / SBP AUC0–4h / SBP Emax / Variation in cutaneous temperature: oral; for DBP AUC0–4h / DBP Emax / HR AUC0–4h / HR Emax / SBP AUC0–4h / SBP Emax: methylone 100–300 mg n=8, MDMA 75–100 mg n=6, baseline-adjusted, mean ± SD; for Variation in cutaneous temperature: methylone 100–300 mg, MDMA 75–100 mg, versus baseline, 0–4 h; for DBP Dunnet’s Test / HR Dunnet’s Test / SBP Dunnet’s Test: time points significantly different from baseline
Description: (§1) The study was designed as a non-controlled prospective observational study in a naturalistic setting with methylone and MDMA self-administration. The methodology, including procedures and evaluations, coincides with previous observational–naturalistic studies aimed at evaluating the acute effects of other NPS [38, 39, 40]. Six subjects (5 M, 1 F) self-administered MDMA and 8 subjects (5 M, 3 F) self-administered methylone. Each subject participated only in one session. Participants brought their own substance obtained from an unknown source, which was tested by Energy Control, a harm reduction organization that provides a drug checking service to drug users. Pills containing methylone and MDMA were analyzed by gas chromatography associated with mass spectrometry (GC/MS), a technique that traces the presence of the most frequent drugs of abuse, such as MDMA, cocaine, heroin, amphetamine and methamphetamine, LSD, and multiple NPS (methylone, mephedrone, and other synthetic cathinones, synthetic cannabinoids, tryptamines, among others).
(§2) In both sessions, participants selected the dose of methylone or MDMA according to their previous drug use experience. Doses of methylone could be selected from a range (75–300 mg) that was previously defined according to the consulted literature. The WHO Expert Committee on Drug Dependence (Thirty-Sixth Meeting, Geneva, Switzerland, 16–20 June 2014) established that 60 mg of methylone was the threshold dose and doses over 250 mg were often related to very strong activity. Some users have reported uses of 300 mg of methylone as a common dose [www.erowid.org] (accessed on 15 June 2021). The mean of the selected doses of MDMA was 87.50 mg (3 subjects ingested 75 mg (2 males and 1 female), 3 males 100 mg). In the other study session, methylone doses ranged from 100 to 300 mg, with a mean of 187.50 mg. Based on their dose selection, 1 male ingested 100 mg, 2 subjects 150 mg (1 male and 1 female), 4 subjects 200 mg (2 males and 2 females), and 1 male 300 mg.
(§3) The sessions were conducted in a naturalistic setting. Participants were allowed to talk, read, listen to music, or play games, except during the evaluation times. However, they were asked to refrain from talking about the effects of the substance. All the subjects were evaluated simultaneously at baseline, 1, 2, and 4 h after administration of methylone or MDMA, which occurred approximately at 16:00 h. At each time point, evaluations were followed in a specific order: physiological effects, oral fluid collection, and subjective effects scales and questionnaires.
Non-invasive systolic blood pressure (SBP), diastolic blood pressure (DBP), and heart rate (HR) were measured with subjects in the sitting position, using an automatic Omron monitor at baseline, 1, 2, and 4 h (h) after self-administration. Cutaneous temperature was determined at the same time points.
(§4) Vital signs (SBP, DBP, and HR) and subjective effects (VAS, ARCI, and VESSPA-SSE) were baseline-adjusted. Maximum effects and the time in which maximum effects appeared were determined, and the area under the curve (AUC0–4h) was calculated with the trapezoidal rule.
(§5) Thirdly, to find possible significant changes from baseline, a Dunnett multiple comparison test was conducted to compare each time point with baseline in both drug conditions (0–1 h, 0–2 h, 0–4 h).

[3] = cited from earlier work; for Median overall OF/B ratio: oral fluid vs plasma
healthy poly-drug users [4] = experiment: Subjective effects, VESSPA-SSE questionnaire; type: in vivo, humans; set-up: key to VESSPA PS Dunnet’s Test: “a” (times 0–1 h); “b” (times 0–2 h); “c” (times 0–4 h); not significant (NS); details: for VESSPA ACT (activity and energy) AUC0–4h / VESSPA ACT (activity and energy) Emax / VESSPA ANX (psychosomatic anxiety) AUC0–4h / VESSPA ANX (psychosomatic anxiety) Emax / VESSPA PS (psychotic symptoms) AUC0–4h / VESSPA PS (psychotic symptoms) Emax / VESSPA S (sedation) AUC0–4h / VESSPA S (sedation) Emax / VESSPA SOC (pleasure and sociability) AUC0–4h / VESSPA SOC (pleasure and sociability) Emax: oral, methylone 100–300 mg n=8, MDMA 75–100 mg n=6, baseline-adjusted, mean ± SD; for VESSPA ACT Dunnet’s Test / VESSPA ANX Dunnet’s Test / VESSPA PS Dunnet’s Test / VESSPA S Dunnet’s Test / VESSPA SOC Dunnet’s Test: time points significantly different from baseline
Description: as §1, §2, §3
Subjective effects were evaluated at baseline, 1, 2, and 4 h after self-administration using visual analogue scales (VAS), the Addiction Research Center Inventory (ARCI), and the Evaluation of Subjective Effects of Substances with Abuse Potential questionnaire (VESSPA-SSE).
The VESSPA-SSE is a questionnaire sensitive to subjective effects related to stimulants such as MDMA that includes six subscales: sedation (S), psychosomatic anxiety (ANX), changes in perception (CP), pleasure and sociability (SOC), activity and energy (ACT), and psychotic symptoms (PS).
as §4, §5

[5] = Oral fluid concentrations (Salivette, LC-MS/MS); type: in vivo, humans; details: both sexes, human; for Cmax / AUC(0-t): methylone 100–300 mg n=8, MDMA 75–100 mg n=6, mean ± SD; for AUC(0-t): read-out: Oral fluid AUC0–4 h; for Tmax: methylone 100–300 mg n=8, MDMA 75–100 mg n=6, median (min–max)
Description: In both sessions, oral fluid samples were collected with Salivette to determine methylone and MDMA concentrations in oral fluid at baseline, 1 h, 2 h, and 4 h. All samples were centrifuged after collection and stored frozen at −20 °C until analysis. Methylone and MDMA oral fluid concentrations were quantified via liquid chromatography tandem–mass spectrometry (LC–MS/MS).
For oral fluid concentrations of MDMA and methylone, only a descriptive analysis was presented showing main pharmacokinetics data such as the maximum concentration (Cmax), the time required to reach maximum concentrations (Tmax), and AUC0–4h. These parameters were calculated using the Pharmacokinetic Functions for Microsoft Excel (Joel Usansky, Atul Desai, and Diane Tang-Liu, Department of Pharmacokinetics and Drug Metabolism, Allergan, Irvine, CA, USA).

5-HT2C receptors = tested on: 5-HT2C receptors; set-up: method as in PMID 25237120, PMID 23583454; details: cited from earlier work
users = tested on: users; set-up: method as in earlier work; details: cited from earlier work
CYP2D6 = details: limited contribution of CYP1A2, CYP2B6, CYP2C19; cited from earlier work
[6] = oral administration, user reports

| SMILES | DBP AUC0–4h (healthy poly-drug users [2]) | DBP Emax (healthy poly-drug users [2]) [mmHg] | HR AUC0–4h (healthy poly-drug users [2]) | HR Emax (healthy poly-drug users [2]) [bpm] | SBP AUC0–4h (healthy poly-drug users [2]) | SBP Emax (healthy poly-drug users [2]) [mmHg] | Variation in cutaneous temperature (healthy poly-drug users [2]) | DBP Dunnet’s Test (healthy poly-drug users [2]) | HR Dunnet’s Test (healthy poly-drug users [2]) | SBP Dunnet’s Test (healthy poly-drug users [2]) | VESSPA ACT (activity and energy) AUC0–4h (healthy poly-drug users [4]) | VESSPA ACT (activity and energy) Emax (healthy poly-drug users [4]) [score] | VESSPA ANX (psychosomatic anxiety) AUC0–4h (healthy poly-drug users [4]) | VESSPA ANX (psychosomatic anxiety) Emax (healthy poly-drug users [4]) [score] | VESSPA PS (psychotic symptoms) AUC0–4h (healthy poly-drug users [4]) | VESSPA PS (psychotic symptoms) Emax (healthy poly-drug users [4]) [score] | VESSPA S (sedation) AUC0–4h (healthy poly-drug users [4]) | VESSPA S (sedation) Emax (healthy poly-drug users [4]) [score] | VESSPA SOC (pleasure and sociability) AUC0–4h (healthy poly-drug users [4]) | VESSPA SOC (pleasure and sociability) Emax (healthy poly-drug users [4]) [score] | other results |
| --- | --- | --- | --- | --- | --- | --- | --- | --- | --- | --- | --- | --- | --- | --- | --- | --- | --- | --- | --- | --- | --- |
| CNC(C)Cc1ccc2c(c1)OCO2 (stereo not shown) [MDMA, 3,4-methylenedioxymethamphetamine] | 78.92 ± 30.33 | 32.17 ± 11.29 | 23.83 ± 38.73 | 10.67 ± 18.22 | 107.67 ± 44.34 | 46.83 ± 20.83 | Neither of the substances caused significant variations | a, b | NS | a, b | 32.58 ± 15.71 | 13.33 ± 4.84 | 16.50 ± 8.82 | 6.67 ± 4.37 | 2.25 ± 2.36 | 1.33 ± 1.21 | 5.92 ± 6.09 | 2.83 ± 2.23 | 38.67 ± 17.84 | 14.50 ± 5.96 | Kp [1]: 22.4; Maximum oral fluid to blood (OF/B) ratio ([3]; at 1.5 h after a 100 mg dose): 18.1 ± 7.9; Median overall OF/B ratio ([3]; high dose 1.6 mg/kg): 6.0; Median overall OF/B ratio ([3]; low dose 1.0 mg/kg): 5.2; VESSPA ACT Dunnet’s Test (healthy poly-drug users [4]): a, b; VESSPA ANX Dunnet’s Test (healthy poly-drug users [4]): a, b; VESSPA PS Dunnet’s Test (healthy poly-drug users [4]): NS; VESSPA S Dunnet’s Test (healthy poly-drug users [4]): a, c; VESSPA SOC Dunnet’s Test (healthy poly-drug users [4]): a, b; Cmax [5]: 2940 ± 2760 ng/mL; AUC(0-t) [5]: 6590 ± 5230 ng·h/mL; Tmax [5]: 2 h; Activity at 5-HT2C receptors (5-HT2C receptors): partial agonist rather than an antagonist |
| CNC(C)C(=O)c1ccc2c(c1)OCO2 (stereo not shown) [Methylone, 3,4-methylenedioxymethcathinone] | 55.19 ± 31.02 | 19.63 ± 13.96 | 52.06 ± 39.16 | 20.50 ± 19.78 | 80.81 ± 42.89 | 31.25 ± 14.77 | Neither of the substances caused significant variations | a, b, c | a | a, b, c | 24.44 ± 17.87 | 9.75 ± 6.25 | 17.94 ± 11.17 | 7.50 ± 4.69 | 5.63 ± 5.58 | 2.63 ± 2.20 | 7.06 ± 6.45 | 3.38 ± 2.50 | 31.31 ± 25.40 | 12.25 ± 8.31 | VESSPA ACT Dunnet’s Test (healthy poly-drug users [4]): a, b; VESSPA ANX Dunnet’s Test (healthy poly-drug users [4]): b, c; VESSPA PS Dunnet’s Test (healthy poly-drug users [4]): b; VESSPA S Dunnet’s Test (healthy poly-drug users [4]): b, c; VESSPA SOC Dunnet’s Test (healthy poly-drug users [4]): a, b; Threshold dose (users; WHO Expert Committee on Drug Dependence): 60 mg; Onset of effects after administration (users; [6]): 15 to 60 min; Time of peak effects (users; [6]): 60 to 90 min; Total duration of effects (users; [6]): 3 to 5 h; Cmax [5]: 15500 ng/mL; AUC(0-t) [5]: 40600 ng·h/mL; Tmax [5]: 2 h; Activity at 5-HT2C receptors (5-HT2C receptors): weak antagonist effects; Enzymes metabolizing the substance in the liver (CYP2D6): principally by the enzymatic activity of CYP2D6 |
